Where two headings read alike, the source gives them in different places.
Columns and labels:
[1] = molecular target: T1, Full length wild-type cereblon CRBN (Homo sapiens, UniProt Q96SW2); assay: Fluorescence polarization (FP) assay indicating cereblon binding
T1 construct: Full length wild-type cereblon CRBN (80.0 nM, 10 μL) was incubated in assay buffer
Source text: Protocol for Fluorescent Polarization Assay
Compound activity was monitored in a fluorescence polarization (FP) homogeneous assay using 1-[5-({2-[2-(2-{[2-(2,6-dioxopiperidin-3-yl)-1,3-dioxo-2,3-dihydro-1H-isoindol-4-yl]oxy}acetamido)ethoxy]ethyl}carbamoyl)pentyl]-3,3-dimethyl-2-[(1E,3E)-5-[(2E)-1,3,3-trimethyl-5-sulfo-2,3-dihydro-1H-indol-2-ylidene]penta-1,3-dien-1-yl]-3H-indol-1-ium-5-sulfonate as a fluorescent probe. Unless otherwise stated, all reagents were purchased from Sigma Aldrich. Enzymatic reactions were conducted in Perkin-Elmer Black 384 well ProxiPlate Plus (catalogue no. 6008269) in 10 μL total volume. Full length wild-type cereblon CRBN (80.0 nM, 10 μL) was incubated in assay buffer containing 20 mM HEPES (pH 8.0), […], 0.5 mM TCEP and 0.05% Tween 20 in the presence or absence of compound (300 nL). Inhibitors were stored as 10 mM DMSO stocks in an inert environment (low humidity, dark, low oxygen, room temperature) using the Storage Pod System. Compounds and DMSO were dispensed using the Echo E5XX (Labcyte Inc. USA) to give concentrations from 300 to 0.937 or 3000 to 9.3 nM in a 12 data point curve. […] Following incubation at room temperature for 30 min, the assay was initiated by dispensing the probe to a final concentration of 5 nM (2.5 nL of a 20 μM stock) using the Echo E5XX. FP was measured after a period of 12 hours using a Pherastar plate reader (BMG Labtech, Germany) exciting at 590 nm and measuring the amount of parallel and perpendicular light at 675 nm. The FP signal was subsequently normalized to the no-compound control (i.e., DMSO). Analysis and IC50 values were derived using Dotmatics (Dotmatics UK) software.

GSPT1 = GSPT1 (Homo sapiens, UniProt P15170+Q96SW2); assay: Immunofluorescence assay for GSPT1 degradation in CAL-Si cells; type: cell-based; set-up: CAL-Si cells were purchased from DSMZ (cat. Number ACC302); host or cells: CAL-Si (CAL-51) cells; conditions: 6 hours treatment
Chain of GSPT1 (P15170 whole entry): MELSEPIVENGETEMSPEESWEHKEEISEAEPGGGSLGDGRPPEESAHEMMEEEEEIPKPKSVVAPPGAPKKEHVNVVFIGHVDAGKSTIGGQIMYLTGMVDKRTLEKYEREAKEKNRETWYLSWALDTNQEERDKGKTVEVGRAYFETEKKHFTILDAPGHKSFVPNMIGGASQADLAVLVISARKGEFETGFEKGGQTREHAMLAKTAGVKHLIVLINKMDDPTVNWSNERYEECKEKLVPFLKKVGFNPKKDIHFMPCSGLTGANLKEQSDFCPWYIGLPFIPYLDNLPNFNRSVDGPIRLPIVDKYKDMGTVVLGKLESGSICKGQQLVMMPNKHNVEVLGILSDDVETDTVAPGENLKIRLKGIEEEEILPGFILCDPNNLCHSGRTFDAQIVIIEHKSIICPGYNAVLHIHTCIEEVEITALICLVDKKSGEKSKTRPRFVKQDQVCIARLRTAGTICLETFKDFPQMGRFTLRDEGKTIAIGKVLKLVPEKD
Chain of GSPT1 (Q96SW2 whole entry): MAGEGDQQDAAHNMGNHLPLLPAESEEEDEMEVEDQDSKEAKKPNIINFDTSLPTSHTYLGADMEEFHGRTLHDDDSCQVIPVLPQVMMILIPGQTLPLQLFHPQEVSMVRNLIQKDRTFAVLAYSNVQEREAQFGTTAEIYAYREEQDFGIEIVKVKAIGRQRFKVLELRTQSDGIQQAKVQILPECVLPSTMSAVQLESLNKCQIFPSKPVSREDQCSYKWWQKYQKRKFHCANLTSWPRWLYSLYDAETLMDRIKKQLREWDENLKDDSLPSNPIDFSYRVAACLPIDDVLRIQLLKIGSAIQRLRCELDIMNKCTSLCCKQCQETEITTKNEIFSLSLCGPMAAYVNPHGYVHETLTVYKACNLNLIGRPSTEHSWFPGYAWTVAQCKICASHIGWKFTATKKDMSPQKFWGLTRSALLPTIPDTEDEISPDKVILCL
Chain of GSPT1 (Q16531 whole entry partner): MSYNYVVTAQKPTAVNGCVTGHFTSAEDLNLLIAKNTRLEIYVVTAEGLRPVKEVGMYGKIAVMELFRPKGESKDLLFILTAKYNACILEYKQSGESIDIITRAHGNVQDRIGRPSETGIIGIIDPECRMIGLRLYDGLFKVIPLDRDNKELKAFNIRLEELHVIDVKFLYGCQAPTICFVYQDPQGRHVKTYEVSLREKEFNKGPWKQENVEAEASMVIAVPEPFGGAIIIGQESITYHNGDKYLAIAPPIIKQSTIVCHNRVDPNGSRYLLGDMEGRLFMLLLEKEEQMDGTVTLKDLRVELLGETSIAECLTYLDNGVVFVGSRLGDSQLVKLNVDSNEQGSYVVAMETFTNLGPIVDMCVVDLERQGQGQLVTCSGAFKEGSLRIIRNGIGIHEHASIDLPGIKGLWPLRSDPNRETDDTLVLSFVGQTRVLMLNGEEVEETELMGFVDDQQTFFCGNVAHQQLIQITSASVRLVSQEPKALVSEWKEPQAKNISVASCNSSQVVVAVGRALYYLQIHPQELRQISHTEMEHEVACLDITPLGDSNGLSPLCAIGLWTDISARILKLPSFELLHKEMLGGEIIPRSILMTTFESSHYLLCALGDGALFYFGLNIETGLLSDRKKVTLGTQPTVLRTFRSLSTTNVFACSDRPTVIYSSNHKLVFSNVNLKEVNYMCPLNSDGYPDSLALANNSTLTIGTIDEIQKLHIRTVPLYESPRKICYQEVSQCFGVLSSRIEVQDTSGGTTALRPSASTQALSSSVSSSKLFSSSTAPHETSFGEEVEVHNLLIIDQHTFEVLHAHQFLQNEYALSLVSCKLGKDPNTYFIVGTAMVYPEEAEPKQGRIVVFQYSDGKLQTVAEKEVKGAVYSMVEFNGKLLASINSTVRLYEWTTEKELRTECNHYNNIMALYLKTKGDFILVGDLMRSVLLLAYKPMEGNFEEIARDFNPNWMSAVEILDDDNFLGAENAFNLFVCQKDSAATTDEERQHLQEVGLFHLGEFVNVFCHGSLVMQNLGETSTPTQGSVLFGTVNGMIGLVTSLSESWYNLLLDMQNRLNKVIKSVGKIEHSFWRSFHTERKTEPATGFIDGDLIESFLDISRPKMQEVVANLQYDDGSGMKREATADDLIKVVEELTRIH
Procedure: The representative compounds were tested in an immunofluorescence assay for their activity to bind to degrade GSPT1. CAL-Si cells were purchased from DSMZ (cat. Number ACC302), sub-cultured in 90% Dulbecco's MEM (4.5 g/L glucose, Gibco 11965)+10% […] inactivated FBS (BioConcept, 2-01F136I) and incubated at 37° C., 5% CO2. For the assay, imaging microtiterplate Cell Carrier 96 Ultra (Perkin Elmer 6055302) were pre-coated with Fibronectin (Sigma F085, 30 μl at 0.2 μg/ml) in PBS (100 μl, Gibco 14190) for 45 min at room temperature, rinsed with PBS and CAL-Si cells (30K cells/well) were plated and let to adhere overnight. Cells were treated with compounds typically using a serial dilution ranging from 30 μM to 0.1 nM for 6 hours. Compounds were stored at 10 mM DMSO stocks. Vehicle (DMSO), positive (CC-885, 10 μM) and rescue controls (positive control plus 0.2 μM bortezomib) were also included at this stage. Cells were subsequently rinsed with PBS and fixed in 10% Formalin solution (50 μl, Sigma HT5011)) for 20 mins at room temperature. Following three consecutive PBS washes (100 μl), cells were permeabilized in 0.1% Triton X-100 in PBS (Sigma 93443, 50 μl) for 15 mins at room temperature. Following three further PBS washes, […] blocking buffer (1% BSA, Sigma A4503, in PBS) was added for 45 min for signal-to-noise reduction.
Primary antibody (human GSPT1, Sigma HPA052488) was diluted in blocking buffer (dil.1/300, 35 μl/well) and incubated with the cells overnight at 4° C. After three PBS washes, Alexa-fluor 488 coupled secondary antibodies (Invitrogen, A32731, dil.1/1000), Alexa-fluor 647-Phalloidin (Invitrogen, A22287, dil.1/200) and DAPI (Thermo, #62248, dil.1/1000) were diluted in blocking buffer and incubated with the samples for 2 hours at room temperature. After three final PBS washes, samples were conserved in […] PBS in the dark, until measurement. Image acquisition was performed on the Operetta High-Content Imager (Perkin-Elmer). Fluorescence intensity of Alexa-Fluor 488 (GSPT1), Alexa-Fluor 647 (Actin) and DAPI (Nucleus) were measured. For the determination of GSPT1 DC50 values, a custom algorithm implemented in the PerkinElmer image analysis software Harmony-Acapella® was developed. After user-defined setting of adjustment parameters, the analysis was run identically without human intervention for all image fields. DAPI staining of the nuclei was used to determine the location of cells using standard nuclei detection modules. Segmentation artifacts were removed by threshold-based filters for area, roundness and intensity. The outline of the cells was determined analogously from the sum of the normalized, smoothed DAPI and Actin channel, starting from each nucleus.
The Alexa-Fluor 488 (GSPT1) signal intensity in each cell was finally measured, in order to obtain a Mean intensity per cell. GSPT1 degradation (DC50) was calculated after normalization to controls and data import in CDD vault Database, using non-linear regression.

[2] = cereblon binding, CRBN 80.0 nM, probe 5 nM, FP read after 12 hours, read-out: rFP IC50
[3] = fluorescence polarization assay, read-out: IC50 value (cereblon binding)
[4] = read-out: Code: activity for GSPT1 degradation (DC50)
[5] = GSPT1 degradation, read-out: DC50

T1 sequence (Q96SW2 whole entry): as the sequence (Q96SW2 whole entry) above

Row | SMILES | IC50 [1, 2] [nM] | IC50 [1, 3] [nM] | DC50 (GSPT1; [4]) [nM] | DC50 (GSPT1; [5]) [nM]
1 | Cc1c(Cl)cc(NC(=O)CCc2ccc3c(c2)C(=O)N(C2CCC(=O)NC2=O)C3)cc1OCCN1CCOCC1 (centres unmarked) [Compound 39] | ≤ 500 | < 1100 | 30 to 300 | 
2 | Cc1c(Cl)cc(NC(=O)CCc2ccc3c(c2)C(=O)N(C2CCC(=O)NC2=O)C3)cc1OC1CCNC1 (centres unmarked) [Compound 40, N-(3-chloro-4-methyl-5-(pyrrolidin-3-yloxy)phenyl)-3-(2-(2,6-dioxopiperidin-3-yl)-3-oxoisoindolin-5-yl)propanamide] | ≤ 500 | < 1100 | > 300 | 
3 | CC(C)(C)c1ccc(NC(=O)CCc2ccc3c(c2)C(=O)N(C2CCC(=O)NC2=O)C3)cn1 (centres unmarked) [Compound 41] | 1100 to 1700 |  | ≤ 30 | 26
4 | Cc1c(F)cc(NC(=O)CCc2ccc3c(c2)C(=O)N(C2CCC(=O)NC2=O)C3)cc1CN1CCOCC1 (centres unmarked) [Compound 42] | 1100 to 1700 |  | ≤ 30 | 30
5 | CCc1cc(NC(=O)CCc2ccc3c(c2)C(=O)N(C2CCC(=O)NC2=O)C3)cc(Cl)c1C (centres unmarked) [Compound 43] | 1100 to 1700 |  | ≤ 30 | 26
6 | O=C1CCC(N2Cc3ccc(CCC(=O)Nc4ccc(-c5ccccn5)cc4)cc3C2=O)C(=O)N1 (centres unmarked) [Compound 44] | 500 to 1100 | < 1100 | ≤ 30 | 27
7 | CC(C)(C)c1ccc(NC(=O)CCc2ccc3c(c2)C(=O)N(C2CCC(=O)NC2=O)C3)cc1 (centres unmarked) [Compound 45] | 500 to 1100 | < 1100 | ≤ 30 | 22
8 | CCc1cc(NC(=O)CCc2ccc3c(c2)C(=O)N(C2CCC(=O)NC2=O)C3)cnc1C (centres unmarked) [Compound 46] | 500 to 1100 | < 1100 | 30 to 300 | 
9 | CCc1ncc(NC(=O)CCc2ccc3c(c2)C(=O)N(C2CCC(=O)NC2=O)C3)cc1C (centres unmarked) [Compound 47] | 500 to 1100 | < 1100 | 30 to 300 | 
10 | O=C1CCC(N2Cc3ccc(CCC(=O)Nc4cnc5c(c4)COCC5)cc3C2=O)C(=O)N1 (centres unmarked) [Compound 48] | 1100 to 1700 |  | > 300 | 
11 | O=C1CCC(N2Cc3ccc(CCC(=O)Nc4cnc5c(c4)CCC5)cc3C2=O)C(=O)N1 (centres unmarked) [Compound 49] | 1100 to 1700 |  | > 300 | 
12 | Cc1c(Cl)cc(NC(=O)CCc2ccc3c(c2)C(=O)N(C2CCC(=O)NC2=O)C3)cc1OC1CCN(C)C1 (centres unmarked) [Compound 50] | ≤ 500 | < 1100 | 30 to 300 | 
13 | Cc1c(Cl)cc(NC(=O)CCc2ccc3c(c2)C(=O)N(C2CCC(=O)NC2=O)C3)cc1OCC1CCNC1 (centres unmarked) [Compound 51] | ≤ 500 | < 1100 | > 300 | 
14 | Cc1cc(NC(=O)CCc2ccc3c(c2)C(=O)N(C2CCC(=O)NC2=O)C3)cc(C)n1 (centres unmarked) [Compound 52] | > 1700 |  | > 300 | 
15 | Cc1c(CN2CCOCC2)cc(NC(=O)CCc2ccc3c(c2)C(=O)N(C2CCC(=O)NC2=O)C3)cc1OC(F)(F)F (centres unmarked) [Compound 53] | 500 to 1100 | < 1100 | ≤ 30 | 22
16 | CCc1cc(NC(=O)CCc2ccc3c(c2)C(=O)N(C2CCC(=O)NC2=O)C3)ccn1 (centres unmarked) [Compound 54] | 500 to 1100 | < 1100 | > 300 | 
17 | CC1(c2ccc(NC(=O)CCc3ccc4c(c3)C(=O)N(C3CCC(=O)NC3=O)C4)cc2)COC1 (centres unmarked) [Compound 55] | 1100 to 1700 |  | > 300 | 
18 | O=C1CCC(N2Cc3ccc(CCC(=O)Nc4cc(F)cc(OC(F)(F)F)c4)cc3C2=O)C(=O)N1 (centres unmarked) [Compound 56] | > 1700 |  | 30 to 300 | 
19 | CCc1cc(NC(=O)CCc2ccc3c(c2)C(=O)N(C2CCC(=O)NC2=O)C3)cc(C)n1 (centres unmarked) [Compound 57] | ≤ 500 | < 1100 | > 300 | 
20 | CC1(c2ccc(NC(=O)CCc3ccc4c(c3)C(=O)N(C3CCC(=O)NC3=O)C4)cc2)CC1 (centres unmarked) [Compound 58] | 1100 to 1700 |  | 30 to 300 | 
21 | O=C1CCC(N2Cc3ccc(CCC(=O)Nc4cc(OC(F)(F)F)ccn4)cc3C2=O)C(=O)N1 (centres unmarked) [Compound 59] | 500 to 1100 | < 1100 | > 300 | 
22 | O=C1CCC(N2Cc3ccc(CCC(=O)Nc4ccc(F)c(OC(F)(F)F)c4)cc3C2=O)C(=O)N1 (centres unmarked) [Compound 60] | > 1700 |  | 30 to 300 | 
23 | Cc1c(Cl)cc(NC(=O)CCc2ccc3c(c2)C(=O)N(C2CCC(=O)NC2=O)C3)cc1OCC1CCN(C)C1 (centres unmarked) [Compound 61] | ≤ 500 | < 1100 | > 300 | 
24 | CC(F)(F)c1ccc(NC(=O)CCc2ccc3c(c2)C(=O)N(C2CCC(=O)NC2=O)C3)cc1 (centres unmarked) [Compound 63] | ≤ 500 | < 1100 | 30 to 300 | 
25 | Cc1ncc(NC(=O)CCc2ccc3c(c2)C(=O)N(C2CCC(=O)NC2=O)C3)cc1OC(F)(F)F (centres unmarked) [Compound 64] | 1100 to 1700 |  | 30 to 300 | 
26 | CCc1cc(NC(=O)CCc2ccc3c(c2)C(=O)N(C2CCC(=O)NC2=O)C3)sn1 (centres unmarked) [Compound 65] | > 1700 |  | 30 to 300 | 
27 | O=C1CCC(N2Cc3ccc(CCC(=O)Nc4cc(CN5CCOCC5)cc(OC(F)F)c4)cc3C2=O)C(=O)N1 (centres unmarked) [Compound 66] | > 1700 |  | 30 to 300 | 
28 | Cc1c(Cl)cc(NC(=O)CNc2ccc3c(c2)C(=O)N(C2CCC(=O)NC2=O)C3)cc1CN1CCOCC1 (centres unmarked) [Compound 67, N-(3-chloro-4-methyl-5-(morpholinomethyl)phenyl)-2-((2-(2,6-dioxopiperidin-3-yl)-3-oxoisoindolin-5-yl)amino)acetamide] | ≤ 500 |  | > 300 | 
29 | Cc1c(Cl)cc(NC(=O)COc2ccc3c(c2)C(=O)N(C2CCC(=O)NC2=O)C3)cc1CN1CCOCC1 (centres unmarked) [Compound 68, N-(3-chloro-4-methyl-5-(morpholinomethyl)phenyl)-2-((2-(2,6-dioxopiperidin-3-yl)-3-oxoisoindolin-5-yl)oxy)acetamide] | ≤ 500 |  | > 300 | 
30 | Cc1ccc(NC(=O)COc2ccc3c(c2)C(=O)N(C2CCC(=O)NC2=O)C3)cc1Cl (centres unmarked) [Compound 69, N-(3-chloro-4-methylphenyl)-2-((2-(2,6-dioxopiperidin-3-yl)-3-oxoisoindolin-5-yl)oxy)acetamide] | 500 to 1100 |  | > 300 | 
